Reference: publication PMC9137581, “Identification of a Novel Class of Anti-Melanogenic Compounds, (Z)-5-(Substituted benzylidene)-3-phenyl-2-thioxothiazolidin-4-one Derivatives, and Their Reactive Oxygen Species Scavenging Activities” (Antioxidants, 2022)
Like-named read-outs stand apart in the source and are kept apart here. Each block holds one compound with its values, some of them ahead of it.

What was measured:
[1] = biological target: T1, mushroom tyrosinase (Agaricus bisporus, UniProt C7FF04); assay: Mushroom tyrosinase inhibition assay (L-tyrosine substrate); assay type: biochemical; details: L-tyrosine substrate; means ± SEMs of triplicate determinations
T1 construct: purchased Sigma-Aldrich
T1 sequence (C7FF04 1-392 limits assumed): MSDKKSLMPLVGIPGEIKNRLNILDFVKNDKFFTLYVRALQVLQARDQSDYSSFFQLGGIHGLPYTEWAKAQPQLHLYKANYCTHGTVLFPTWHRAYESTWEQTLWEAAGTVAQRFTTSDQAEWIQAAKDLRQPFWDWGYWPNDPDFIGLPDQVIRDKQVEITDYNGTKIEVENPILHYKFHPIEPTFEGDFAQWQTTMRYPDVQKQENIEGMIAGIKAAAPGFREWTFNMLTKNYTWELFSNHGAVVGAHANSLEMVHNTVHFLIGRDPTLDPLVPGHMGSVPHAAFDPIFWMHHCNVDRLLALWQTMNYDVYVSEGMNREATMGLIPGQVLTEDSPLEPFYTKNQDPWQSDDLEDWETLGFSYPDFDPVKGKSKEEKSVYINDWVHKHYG
Procedure: In order to examine the inhibitory effect of the (Z)-BPTT analogs on tyrosinase activity, commercially available mushroom tyrosinase (Sigma-Aldrich, St. Louis, MO, USA) was used. The mushroom tyrosinase-inhibitory activities of the analogs were determined as described previously with modification. Briefly, 20 µL (20 units) of an aqueous mushroom tyrosinase solution was added to each well of a 96-well microplate containing 170 µL of a substrate mixture consisting of 345 μM of L-tyrosine solution, 17.2 mM phosphate buffer (pH 6.5), and 10 µL of a (Z)-BPTT analog solution at different concentrations or 10 µL of a kojic acid solution (2, 10, or 50 μM). After incubating the assay mixtures for 30 min at 37 °C, the remaining tyrosinase activities were calculated from the amounts of dopachrome that were formed as determined by measuring their absorbance at 492 nm using a microplate reader (VersaMax™, Molecular Devices, Sunnyvale, CA, USA). The curves of the IC50 values that were derived from the X-axis of the inhibitor concentration versus the amount of product that was produced were determined by aligning the dose–response curve with the Y-axis. Inhibition experiments were performed in triplicate using three to six different concentrations of the (Z)-BPTT analogs or kojic acid. Log–linear curves and their equations were determined by using inhibition percentages at three to six analog concentrations. The individual IC50 values were determined by reading the concentrations on the Y-axis at 50% inhibition. The results are the means of three independent experiments.
The tyrosinase-inhibitory activities were screened against mushroom tyrosinase using L-tyrosine as a substrate, as previously described. Kojic acid, a representative tyrosinase inhibitor, was used as a positive control. […]. All 13 of the (Z)-BPTT analogs inhibited tyrosinase activity in a concentration-dependent manner. The IC50 values are shown in Table 2, along with the analog substitutions.

[2] = ABTS free radical scavenging activity assay; details: 100 µM, 2 min in the dark
Procedure: ABTS free radical scavenging activity was used to evaluate the antioxidant activities of analogs 1–13, as previously described. […] This ABTS free radical solution was then diluted with absolute methanol to an absorbance of 0.70 ± 0.02 at 734 nm. Aliquots (10 µL) of the test samples (10% DMSO + 90% EtOH) were added at a final concentration of 100 µM to 90 µL of the diluted ABTS free radical solution and incubated for 2 min in the dark at room temperature. Absorbances were then measured at 734 nm using a VersaMax™ microplate reader (Molecular Devices, Sunnyvale, CA, USA). The ABTS free radical scavenging activities of the test analogs were calculated using the following formula:Scavenging activity (%) = (Ac − As) × 100/Ac where Ac is the optical density of the non-treated control and As is the optical density of the tested material.
The effects of analogs 1–13 on ABTS (2,2′-azino-bis(3-ethylbenzothiazoline-6-sulfonic acid)) free radical scavenging activity were investigated using trolox as a positive reference control. The concentrations of the analogs and trolox in the test samples were 100 µM. The free radical scavenging activities were assessed by measuring the optical densities at 734 nm after standing in the dark for 2 min. […] Analogs 7–10, with no hydroxyl groups on the β-phenyl ring, had weak ABTS and DPPH radical scavenging activities.

[3] = DPPH radical scavenging activity assay; details: 1 mM, 30 min in the dark
Procedure: The effects of the (Z)-BPTT analogs 1–13 on DPPH radical scavenging activities were investigated as previously described with slight modification. Briefly, 180 μL of 0.2 mM DPPH in methanol was added to 96-well plates and then 20 μL of one of the (Z)-BPTT analogs 1–13 (10 mM in DMSO) or the positive control (10 mM L-ascorbic acid in distilled water) was added and mixed. The 96-well plates were incubated in the dark for 30 min and then the well optical densities were measured at 517 nm using a VersaMax™ microplate reader (Molecular Devices, Sunnyvale, CA, USA). All of these experiments were performed independently in triplicate. The DPPH radical scavenging activities of the analogs were calculated using the following formula:Scavenging activity (%) = (Ac − As) × 100/Ac where Ac is the optical density of the non-treated control and As is the optical density of the tested material.
The DPPH (2,2-diphenyl-1-picrylhydrazyl) radical scavenging abilities of the (Z)-BPTT analogs were investigated using L-ascorbic acid (vitamin C) as a positive control. The final concentrations of the analogs and of the positive control in the test samples and in the DPPH methanol solution were 1 and 0.18 mM, respectively. The scavenging activities of the analogs were assessed by measuring their optical densities at 517 nm after standing the samples in the dark for 30 min.

[4] = biological target: mushroom tyrosinase; details: read-out: IC50 against mushroom tyrosinase, cited from earlier work
[5] = test system: UVB-irradiated HRM2 hairless mice; set-up: method as in PMID 30554432; details: ref [31]; cited from earlier work
[6] = test system: B16F10 cells; assay: Melanin content assay in α-MSH plus IBMX-stimulated cells; assay type: cell-based, murine; details: 48 h, B16F10 cells
Procedure: Briefly, B16F10 cells were seeded at a density of 1 × 10^5 cells per well in 6-well plates and allowed to adhere to the well bases under the same conditions that were used for cell culturing. […] In order to determine the melanin contents, the B16F10 cells that were exposed to α-MSH and IBMX for 48 h were rinsed with PBS twice and incubated in 200 µL of 1 N NaOH solution containing 10% dimethyl sulfoxide (DMSO) for 1 h at 60 °C. The cell lysates were transferred to a 96-well plate and the absorbances at 405 nm were measured using a microplate reader (VersaMax™, Molecular Devices, Sunnyvale, CA, USA). These experiments were performed individually in triplicate. B16F10 cells were seeded in 6-well culture plates and pretreated with analogs 1, 3, and 6 at concentrations of 0, 5, 10, or 20 µM and with analog 2 at 0, 2.5, 5, or 10 µM for 1 h. α-Melanocyte-stimulating hormone (α-MSH; 1 µM) and 3-isobutyl-1-methylxanthine (IBMX; 200 µM) were added sequentially in order to enhance melanin production. After incubation for 48 h at 37 °C, the melanin contents were assessed by measuring the well optical densities at 405 nm using a microplate reader. Kojic acid (10 or 20 µM) was used as a positive control.

[7] = test system: B16F10 murine melanoma cells; set-up: method as in PMID 34356311; details: ref [32]; cited from earlier work

IC50 [1]: > 200 µM
SMILES: COc1ccc(/C=C2\SC(=S)N(c3ccccc3)C2=O)cc1 [Analog 7, (Z)-5-(4-Methoxybenzylidene)-3-phenyl-2-thioxothiazolidin-4-one]

IC50 [1]: 80 ± 3.3 µM
SMILES: COc1cc(/C=C2\SC(=S)N(c3ccccc3)C2=O)ccc1O [Analog 4, (Z)-5-(4-Hydroxy-3-methoxybenzylidene)-3-phenyl-2-thioxothiazolidin-4-one]
ABTS free radical scavenging activity [2]: 61.5%
DPPH radical scavenging activity [3]: 78.7%

SMILES: COc1ccc(/C=C2\SC(=S)NC2=O)cc1O [5-HMT, (Z)-5-(3-hydroxy-4-methoxybenzylidene)-2-thioxothiazolidin-4-one]
IC50 ([4]; ref [31]): 18.1 ± 1 µM
skin effect in vivo [5]: skin-lighting effect

IC50 [1]: 65.5 ± 9.4 µM
SMILES: O=C1/C(=C/c2ccc(O)c(Br)c2)SC(=S)N1c1ccccc1 [Analog 12, (Z)-5-(3-Bromo-4-hydroxybenzylidene)-3-phenyl-2-thioxothiazolidin-4-one]
ABTS free radical scavenging activity (in words) [2]: did not influence

IC50 [1]: 94.3 ± 7.7 µM
SMILES: COc1ccc(/C=C2\SC(=S)N(c3ccccc3)C2=O)cc1OC [Analog 8, (Z)-5-(3,4-Dimethoxybenzylidene)-3-phenyl-2-thioxothiazolidin-4-one]

IC50 [1]: > 200 µM
SMILES: CCOc1cc(/C=C2\SC(=S)N(c3ccccc3)C2=O)ccc1O [Analog 5, (Z)-5-(3-Ethoxy-4-hydroxybenzylidene)-3-phenyl-2-thioxothiazolidin-4-one]
ABTS free radical scavenging activity [2]: 51.2%
DPPH radical scavenging activity [3]: 77.5%

IC50 [1]: 22.1 ± 4.23 µM
SMILES: COc1ccc(/C=C2\SC(=S)N(c3ccccc3)C2=O)c(OC)c1 [Analog 9, (Z)-5-(2,4-Dimethoxybenzylidene)-3-phenyl-2-thioxothiazolidin-4-one]

SMILES: Cc1c(C)c2c(c(C)c1O)CCC(C)(C(=O)O)O2 (stereo not drawn) [trolox, reference compound]
ABTS free radical scavenging activity [2]: 99.8%

IC50 [1]: > 200 µM
SMILES: COc1cc(/C=C2\SC(=S)N(c3ccccc3)C2=O)cc(OC)c1O [Analog 11, (Z)-5-(4-Hydroxy-3,5-dimethoxybenzylidene)-3-phenyl-2-thioxothiazolidin-4-one]
ABTS free radical scavenging activity [2]: 57.2%

SMILES: O=C1O[C@H]([C@@H](O)CO)C(O)=C1O [L-ascorbic acid, reference compound]
DPPH radical scavenging activity [3]: 96.9%

SMILES: O=c1cc(CO)occ1O [kojic acid, reference compound]
reduction of α-MSH plus IBMX-induced increase in melanin content ([6]; 10 µM): 21.8%
reduction of α-MSH plus IBMX-induced increase in melanin content ([6]; 20 µM): 22.9%

IC50 [1]: 78.8 ± 8.63 µM
SMILES: O=C1/C(=C/c2cc(Br)c(O)c(Br)c2)SC(=S)N1c1ccccc1 [Analog 13, (Z)-5-(3,5-Dibromo-4-hydroxybenzylidene)-3-phenyl-2-thioxothiazolidin-4-one]
ABTS free radical scavenging activity (in words) [2]: slightly decreased

IC50 [1]: > 200 µM
SMILES: COc1cc(/C=C2\SC(=S)N(c3ccccc3)C2=O)cc(OC)c1OC [Analog 10, (Z)-3-Phenyl-2-thioxo-5-(3,4,5-trimethoxybenzylidene)thiazolidin-4-one]

SMILES: O=c1/c(=C/c2ccc(O)cc2O)sc2nc3ccccc3n12 [Compound I, (Z)-2-(2,4-dihydroxybenzylidene)benzo[4,5]imidazo[2,1-b]thiazol-3(2H)-one]
IC50 ([4]; ref [32]): 5 ± 0.38 µM
effects in cells [7]: anti-tyrosinase and anti-melanogenic effects
